Measurements taken from patent EP1935887A1, “Heterocyclic substituted carbonyl derivatives and their use as dopamine D3 receptor ligands” (Aventis Pharmaceuticals Inc., priority 2001, dated 2002).
pKi: −log10 of the molar value.

target: T1, Cloned Human Dopamine D3 Receptors (Homo sapiens, UniProt P35462); experiment: [N-Methyl-3H]Spiroperidol binding to cloned human dopamine D3 receptors; conditions: D3 Ki (nM)
T1 construct: expressed in transfected cells; membrane homogenate
Summary of the method: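 [N-methyl-3H]spiroperidol binding is run in Tris buffer, pH 7.7. Receptor source is membranes of a stably transfected, high-expressing CHO clone carrying the human D3 gene, kept at -80°C in 10% DMSO.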

T1 sequence (P35462 whole entry): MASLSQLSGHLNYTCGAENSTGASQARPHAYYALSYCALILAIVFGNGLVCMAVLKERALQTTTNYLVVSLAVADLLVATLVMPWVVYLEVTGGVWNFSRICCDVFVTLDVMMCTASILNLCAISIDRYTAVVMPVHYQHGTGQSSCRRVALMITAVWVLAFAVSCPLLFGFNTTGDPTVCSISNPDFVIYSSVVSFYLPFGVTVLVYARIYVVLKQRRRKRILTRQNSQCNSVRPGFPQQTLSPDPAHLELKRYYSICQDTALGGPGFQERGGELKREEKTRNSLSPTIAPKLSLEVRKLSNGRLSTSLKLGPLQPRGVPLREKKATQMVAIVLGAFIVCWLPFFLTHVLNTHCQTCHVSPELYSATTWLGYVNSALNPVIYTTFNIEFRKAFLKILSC

Question: How did the Ki turn out when `Cn1nc(C2CCN(C[C@@H]3C[C@H]3C(=O)NCCCN3CCCCC3)CC2)c2cc(C(F)(F)F)ccc21` [833585ES] was run?
Answer: 5.86 nM

same assay, conditions: Table 2; unit inferred; read-out: d3Ki

Question: `CC[C@H]1CC[C@H](NC(=O)CCCN2CCN(c3csc4cc(F)ccc34)CC2CCCc2ccccc2)CC1` (stereo partly drawn) [compound 827107] was tested. Which pKi did it give?
Answer: 6.31

Question: How did the pKi turn out when `COc1cc(CNC(=O)[C@]2(C)C[C@H]2CN2CCN(c3csc4cc(C(F)(F)F)ccc34)CC2)cc(OC)c1OC` [compound 825888] was run?
Answer: 7.05

Question: With `C[C@H]1CC[C@H](NC(=O)CCCN2CCN(c3csc4cc(C(F)(F)F)ccc34)CC2Cc2ccccc2)CC1` (stereo partly drawn) [compound 827055] as the molecule, how does the pKi read?
Answer: 6.10

Question: With `CC[C@H]1CC[C@H](NC(=O)[C@@H]2C[C@H]2CN2CCN(c3ccc(OC)cc3OC)CC2)CC1` [compound 817096] as the molecule, how does the pKi read?
Answer: 8.04

Question: With `CC[C@H]1CC[C@H](NC(=O)[C@@H]2C[C@H]2CN2CCN(c3csc4cc(C(F)(F)F)ccc34)CC2)CC1` [compound 815918] as the molecule, how does the pKi read?
Answer: 7.82

Question: How did the pKi turn out when `C[C@H]1CC[C@H](NC(=O)[C@@H]2C[C@H]2CN2CCN(c3ccccc3C#N)CC2)CC1` [compound 817040] was run?
Answer: 9.09

Question: `O=C(CCCN1CCN(c2csc3cc(F)ccc23)CC1CCCc1ccccc1)N(CCO)C1CCCCC1` (stereo not drawn) [compound 827111] was tested. Which pKi did it give?
Answer: 6.84

Question: `CC1C(CN2CCN(c3csc4cc(C(F)(F)F)ccc34)CC2)C1C(=O)NC1CCC1` (stereo not drawn) [compound 825857] was tested. Which pKi did it give?
Answer: 6.86

Question: `COc1ccc(Cl)cc1N1CCN(CC2CC2C(=O)NC2CCC(C)CC2)CC1` (stereo not drawn) [compound 817038] was tested. Which pKi did it give?
Answer: 9.02

Question: How did the pKi turn out when `CC1CCC(NC(=O)C2CC2CN2CCCN(c3ccccn3)CC2)CC1` (stereo not drawn) [compound 818498] was run?
Answer: 7.59

Question: With `O=C(CCCN1CCCN(c2csc3cc(F)ccc23)CC1)NC1CCCC1` [compound 826840] as the molecule, how does the pKi read?
Answer: 7.96

Question: `COc1ccc(CNC(=O)[C@@H]2C[C@H]2CN2CCN(c3csc4cc(C(F)(F)F)ccc34)CC2)c(OC)c1` [compound 826077] was tested. Which pKi did it give?
Answer: 7.05

Question: How did the pKi turn out when `CC[C@H]1CC[C@H](NC(=O)[C@@H]2C[C@H]2CN2CCN(c3cc(C)ccc3C)CC2)CC1` [compound 817102] was run?
Answer: 8.11

Question: With `C[C@@]1(C(=O)NCc2ccc3c(c2)OCO3)C[C@H]1CN1CCN(c2csc3cc(C(F)(F)F)ccc23)CC1` [compound 825886] as the molecule, how does the pKi read?
Answer: 7.40

Question: How did the pKi turn out when `CCN(C(=O)CCCN1CCCN(c2csc3cc(F)ccc23)CC1)C1CCCCC1` [compound 826829] was run?
Answer: 7.82

same assay, conditions: Table 2 part the 10th table; read-out: d3Ki

Question: `CCN(CC)C(=O)C1CCCN(C(=O)[C@@H]2C[C@H]2CN2CCN(c3csc4cc(C(F)(F)F)ccc34)CC2)C1` (stereo partly drawn) [compound 826908] was tested. Which pKi did it give?
Answer: 8.15

Question: `CC1(C)CCCN(C(=O)CCCN2CCN(c3csc4cc(F)ccc34)CC2Cc2ccccc2)C1` (stereo not drawn) [compound 827098] was tested. Which pKi did it give?
Answer: 7.08

Question: `CC1CC(C)CN(C(=O)CCCN2CCN(c3csc4cc(F)ccc34)CC2Cc2ccccc2)C1` (stereo not drawn) [compound 827099] was tested. Which pKi did it give?
Answer: 6.84

Question: How did the pKi turn out when `COC[C@@H]1CCCN1C(=O)[C@@H]1C[C@H]1CN1CCN(c2csc3cc(C(F)(F)F)ccc23)CC1` [compound 826917] was run?
Answer: 6.71

Question: `CC1CCC(C)N1C(=O)[C@@H]1C[C@H]1CN1CCN(c2csc3cc(C(F)(F)F)ccc23)CC1` (stereo partly drawn) [compound 826928] was tested. Which pKi did it give?
Answer: 7.95

Question: How did the pKi turn out when `CCOC(=O)C1CCN(C(=O)[C@@H]2C[C@H]2CN2CCN(c3csc4cc(C(F)(F)F)ccc34)CC2)CC1` [compound 826899] was run?
Answer: 7.34

Question: How did the pKi turn out when `O=C(CCCN1CCN(c2csc3cc(F)ccc23)CC1Cc1ccccc1)N1CCC(O)CC1` (stereo not drawn) [compound 827093] was run?
Answer: 7.08

Question: `CN(C)C1CCN(C(=O)[C@@H]2C[C@H]2CN2CCCN(c3csc4cc(F)ccc34)CC2)C1` (stereo partly drawn) [compound 826883] was tested. Which pKi did it give?
Answer: 7.87

Question: `CC1CCCCN1C(=O)[C@@H]1C[C@H]1CN1CCN(c2csc3cc(C(F)(F)F)ccc23)CC1` (stereo partly drawn) [compound 826905] was tested. Which pKi did it give?
Answer: 7.84

Question: With `CC1(C)CCCN(C(=O)[C@@H]2C[C@H]2CN2CCN(c3csc4cc(C(F)(F)F)ccc34)CC2)C1` [compound 826912] as the molecule, how does the pKi read?
Answer: 7.23

same assay, conditions: read-out: D3 Ki

Question: With `Cc1nc(N)sc1CCNC(=O)C1CC1CN1CCC(c2noc3ccsc23)CC1` (stereo not drawn) [compound 832045] as the molecule, how does the pKi read?
Answer: 7.66

Question: How did the pKi turn out when `COc1cccc2c(C3CCN(C[C@@H]4C[C@H]4C(=O)N[C@H]4CC[C@H](C)CC4)CC3)nn(C)c12` [compound 834054] was run?
Answer: 7.86

Question: How did the pKi turn out when `O=C(NCCCN1CCOCC1)[C@@H]1C[C@H]1CN1CCC(c2noc3c(C(F)(F)F)cccc23)CC1` [compound 832273] was run?
Answer: 6.69

Question: `O=C(NCCCn1ccnc1)[C@@H]1C[C@H]1CN1CCN(c2noc3ccsc23)CC1` [compound 831493, 2R-(4-Thieno[2,3-d]isoxazol-3-yl-piperazin-1-ylmethyl)-1 R-cyclopropanecarboxylic acid (3-imidazol-1-yl-propyl)-amide] was tested. Which pKi did it give?
Answer: 8.31

same assay, conditions: read-out: d3Ki

Question: How did the pKi turn out when `C[C@H]1CC[C@H](NC(=O)[C@@H]2C[C@H]2CN2CCN(c3cnccn3)CC2)CC1` [compound 827187] was run?
Answer: 7.97

Question: With `O=C(NC1CCCCCCCC1)[C@@H]1C[C@H]1CN1CCN(c2csc3cc(F)ccc23)CC1` [compound 826668] as the molecule, how does the pKi read?
Answer: 8.41

Question: `O=C(NCC1CC1)[C@@H]1CCC[C@H]1N1CCN(c2csc3cc(F)ccc23)CC1` [825829G] was tested. Which pKi did it give?
Answer: 7.40

Question: `CN(C)c1ccc(CNC(=O)[C@@H]2CCCC[C@H]2CN2CCN(c3csc4cc(C(F)(F)F)ccc34)CC2)cc1` [compound 826086] was tested. Which pKi did it give?
Answer: 6.99

Question: With `CC1CC(NC(=O)[C@@H]2C[C@H]2CN2CCN(c3csc4cc(C(F)(F)F)ccc34)CC2)CC(C)(C)C1` (stereo partly drawn) [compound 826893] as the molecule, how does the pKi read?
Answer: 7.69

Question: `CC[C@H]1CC[C@H](NC(=O)[C@@H]2C[C@H]2CN2CCN(c3ccc(OC)cc3)CC2)CC1` [compound 827233] was tested. Which pKi did it give?
Answer: 7.56

Question: `C[C@H]1CC[C@H](NC(=O)[C@@H]2C[C@H]2CN2CCN(c3ccc([N+](=O)[O-])cc3)CC2)CC1` [compound 827205] was tested. Which pKi did it give?
Answer: 6.70

Question: How did the pKi turn out when `CC[C@H]1CC[C@H](NC(=O)[C@@H]2C[C@H]2CN2CCN(c3ccc(F)cc3)CC2)CC1` [compound 827235] was run?
Answer: 8.35

Question: With `CCOc1ccccc1N1CCN(C[C@@H]2C[C@H]2C(=O)N[C@H]2CC[C@H](C)CC2)CC1` [compound 827176] as the molecule, how does the pKi read?
Answer: 8.93

Question: How did the pKi turn out when `O=C(NC1CC1)[C@@H]1CCCC[C@@H]1CN1CCN(c2csc3cc(C(F)(F)F)ccc23)CC1` [compound 826105] was run?
Answer: 6.16

Question: With `O=C(NCc1nc2ccccc2[nH]1)[C@@H]1CCC[C@H]1N1CCN(c2csc3cc(F)ccc23)CC1` [825826G] as the molecule, how does the pKi read?
Answer: 7.49

Question: With `CC[C@H]1CC[C@H](NC(=O)[C@@H]2C[C@H]2CN2CCN(c3ccc(Cl)c(Cl)c3)CC2)CC1` [compound 828393] as the molecule, how does the pKi read?
Answer: 8.46

Question: With `CCOC(=O)[C@H]1CCCC[C@H]1NC(=O)[C@@H]1C[C@H]1CN1CCN(c2csc3cc(C(F)(F)F)ccc23)CC1` [compound 826897] as the molecule, how does the pKi read?
Answer: 6.89

Question: How did the pKi turn out when `CC[C@H]1CC[C@H](NC(=O)[C@@H]2C[C@H]2CN2CCN(c3ncccn3)CC2)CC1` [compound 827236] was run?
Answer: 7.89

Question: How did the pKi turn out when `CC[C@H]1CC[C@H](NC(=O)[C@@H]2C[C@H]2CN2CCN(c3cccc(Cl)c3)CC2)CC1` [compound 827212] was run?
Answer: 8.92

Question: With `O=C(NC1CCCC1)[C@@H]1C[C@H]1CN1CCCN(c2csc3cc(C(F)(F)F)ccc23)CC1` [compound 826684] as the molecule, how does the pKi read?
Answer: 8.10

same assay, conditions: the 16th table; read-out: D3 Ki

Question: With `COc1c(F)ccc2c(C3CCN(CCC4(C(=O)N[C@H]5CC[C@H](C)CC5)CC4)CC3)noc12` [compound 833330] as the molecule, how does the pKi read?
Answer: 7.14

Question: How did the pKi turn out when `O=C(NCCCn1ccnc1)C1(CCN2CCN(c3csc4cc(C(F)(F)F)ccc34)CC2)CC1` [compound 832231, 1-{2-[4-(6-Trifluoromethyl-benzo[b]thiophen-3-yl)-piperazin-1-yl]-ethyl}-cyclopropanecarboxylic acid (3-imidazol-1-yl-propyl)-amide] was run?
Answer: 8.16
